Here are results for eight compounds from patent US20250127913A1, “BIFUNCTIONAL FOLATE RECEPTOR BINDING COMPOUNDS” (LYCIA THERAPEUTICS, INC., priority 2021, published 2025).

Assay [1] deals with THP-1 cells. The assay can be described thus: Compound mediated uptake of TNFα-pHrodo in THP-1 cells (flow cytometry). It counts as cell-based. The note with it: THP-1 cells, 24 hrs. Here is the method: THP-1 cells, a monocytic leukemia cell line that endogenously express folate receptor beta, were used as a model system to measure example compound stimulated uptake of in-house produced TNFα conjugated to the pH sensitive fluorescent dye pHrodo green (ThermoFisher Scientific #P35369).
THP-1 cells were maintained in RPMI (Gibco #61870143) with 10% v/v FBS (VWR #89510-188) with 2 mM L-alanyl-L-glutamine dipeptide, 100 units/ml penicillin and 100 μg/ml streptomycin (Gibco #15140148). Cells were pelleted, resuspended in folate-free RPMI (Gibco #27016021) and seeded at 50,000 cells per well of a 96 well plate. Example compound was added to each well as a log 2 dilution series ranging from 20 μM to 125 nM final concentration. Cells were incubated for 24 hrs and washed/resuspended in phosphate buffered saline (pH 7.4) with 1% w/v BSA. Uptake was measured using a Novocyte Advanteon Flow Cytometer (Agilent Technologies) with the […] and FITC detection configuration.
A general note: In flow cytometry, cells or beads pass a laser one at a time.

Assay [2] concerns the target TNFα (Homo sapiens (Human), UniProt P01375). The assay can be described thus: TNFα binding assay (time-resolved FRET, biotinylated TNFα). The note with it: 1 nM biotinylated TNFα, 80 nM probe, 16 hr incubation; read-out: TNF-HTRF-biotin. As to the method: TNFα binding was measured in black 96-well plates using a time-resolved FRET assay using a previously described fluorescence acceptor TNFα probe (Xiao et al J. Med. Chem. 2020). Biotinylated TNFα was purchased from Acro Biosystems. Binding reactions were conducted in 20 mM Hepes (pH 7.5) 10 mM MgCl2 0.015% Tween-20 0.05 mg/ml BSA 2% DMSO with 1 nM TNFα 0.5 nM Streptavidin-Tb and 80 nM probe. Test compounds were resuspended in DMSO and 3-fold serial dilutions were made at 100× final concentrations. Fluorescence was measured using λex=340 nm, λem=490, 520 nm on an SpectraMax M5e plate reader (Molecular Devices) after 16 hr incubation time. Dose responses were conducted in duplicate and normalized to the response with DMSO (high) and 100 nM (R)-3-(1-((3-chloro-7-fluoro-6-(2-(2-hydroxypropan-2-yl)pyrimidin-5-yl)-2-methyl-1,5-naphthyridin-4-yl)amino)ethyl)-4-fluorobenzonitrile (low) on each plate. IC50 values were determined by fitting to 4-parameter curves in GraphPad Prism.
Background: TR-FRET usually uses a lanthanide donor and a delayed reading to cut background.

The target in assay [3] is T1, folate receptor beta (Homo sapiens (Human), UniProt P14207). The assay can be described thus: Folate receptor binding assay (fluorescence polarization). The note with it: 2.5 nM folate receptor beta, 2 nM FR-Cy probe, 2 hr incubation; read-out: FOLR2-FP. As to the method: Folate receptor binding was measured in black 96-well plates using a fluorescence polarization assay. A fluorescent probe consisting of a folate analog linked to Cy5 (FR-Cy) was custom synthesized.
T1 sequence (P14207 17-255): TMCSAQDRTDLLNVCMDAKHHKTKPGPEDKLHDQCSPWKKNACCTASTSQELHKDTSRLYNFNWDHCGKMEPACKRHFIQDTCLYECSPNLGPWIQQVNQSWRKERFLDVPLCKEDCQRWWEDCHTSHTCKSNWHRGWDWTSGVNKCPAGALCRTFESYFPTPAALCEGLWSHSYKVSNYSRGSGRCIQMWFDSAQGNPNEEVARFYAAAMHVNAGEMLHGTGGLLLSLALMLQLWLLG
Test compounds were resuspended in DMSO and 3-fold serial dilutions were made from 300-0.015 μM (100× final concentrations). Binding reactions were conducted in 200 μl final volume in 20 mM Hepes (pH 7.5) 250 mM NaCl 0.0150 Tween-20 1% DMSO with 2.5 nM folate receptor beta (Acro Biosystems) and 2 nM probe. Fluorescence polarization was measured using λex=620 nm, λem=688 nm on an Envision plate reader (Perkin Elmer) after 2 hr incubation time. Dose responses were conducted in duplicate and normalized to the response with DMSO (high) and 1 μM folic acid (low) on each plate. IC50 values were determined by fitting to 4-parameter curves in GraphPad Prism.
A general note: In fluorescence polarisation assays a small probe gives low polarisation when free and higher when bound to something large.

The target in assay [4] is TNFα and streptavidin immobilized FOL2R (Homo sapiens (Human), UniProt P01375+P14207). The assay can be described thus: Ternary complex SPR assay. The note with it: 10 nM compound, max response normalized to expected response; for TC 150 nM- tagless TNF Normalized: 150 nM untagged TNF; for TC 300 nM- tagless TNF Normalized: 300 nM untagged TNF; for TC 60 nM taggless TNF normalized: 60 nM untagged TNF. It counts as binding. Here is the method:
Folate receptor-TNFα ternary complex SPR assays were conducted on a Biacore 8K instrument (Cytiva) using biotinylated folate receptor beta (Acro Biosystems). Folate receptor was immobilized at -1800 RU on a streptavidin chip (Cytiva) in 10 mM HEPES pH 7.5, 150 mM NaCl, 0.05% Tween 20. Untagged TNF was preincubated with 10 nM compound for 6 hr in 10 mM HEPES pH 7.5, 150 mM NaCl, 0.05 Tween 20, 2% DMSO at 25° C. Samples were then injected over the folate receptor surface at 30 μl/min with an association time of 110 s and a dissociation time of 600 s. Surfaces were regenerated with 4 M MgCl2 at 30 μl/mm for 30 s. The maximum measured response was normalized by comparison to the maximum expected response for each compound.

The target in assay [5] is T1, folate receptor beta. The assay can be described thus: Folate receptor SPR assay (biotinylated folate receptor beta on streptavidin chip). In kind it is binding. Here is the method: Folate receptor SPR binding assays were conducted on a Biacore 8K instrument (Cytiva) using biotinylated folate receptor beta (Acro Biosystems). Briefly, folate receptor was immobilized at -550 RU on a streptavidin chip (Cytiva) in 10 mM HEPES pH 7.5, 150 mM NaCl, 0.05% Tween 20. Multi-cycle kinetic studies were conducted with 8 compound concentrations using 2-fold dilutions in 10 mM HEPES pH 7.5, 150 mM NaCl, 0.05% Tween 20, 2% DMSO at 25° C. A flow rate or 75 μl/mmn with an association time of 120 s and a dissociation time of 600 s were used. Surfaces were regenerated with 4 M MgCl2 at 30 μl/min for 30 s. Data were fit to a 1:1 model to determine the reported binding parameters.

pIC50, pKd: −log10 of the molar value.

TNFα, sequence (P01375 77-233): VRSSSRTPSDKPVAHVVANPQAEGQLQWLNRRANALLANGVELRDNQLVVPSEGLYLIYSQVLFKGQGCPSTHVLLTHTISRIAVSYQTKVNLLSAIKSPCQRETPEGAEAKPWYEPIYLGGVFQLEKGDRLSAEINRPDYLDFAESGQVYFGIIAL
TNFα and streptavidin immobilized FOL2R, sequence (P14207 17-230): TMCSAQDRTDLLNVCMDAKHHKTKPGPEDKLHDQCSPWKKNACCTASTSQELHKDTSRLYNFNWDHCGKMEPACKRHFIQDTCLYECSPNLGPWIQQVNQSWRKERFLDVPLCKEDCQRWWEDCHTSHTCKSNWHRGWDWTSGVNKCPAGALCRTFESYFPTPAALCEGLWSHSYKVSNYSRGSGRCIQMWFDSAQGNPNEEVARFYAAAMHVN
TNFα and streptavidin immobilized FOL2R, sequence (P01375 77-233): as the sequence (P01375 77-233) above

Take `Cc1nc2cc(F)c(-c3cnc(OCCCCCn4cc(COCCOCCOCCOCCNC(=O)[C@H](CCC(=O)O)NC(=O)c5ccc(NCc6cnc7nc(N)nc(O)c7n6)cc5)nn4)nc3)nc2c(N[C@H](C)c2cc(C#N)ccc2F)c1Cl` [Compound 1-21]: the “uptake of labelled TNFα (median fluorescence intensity of pHrodo dye)” value in assay [1] is on record as “stimulate uptake of TNFα”.

As to `Cc1nc2cc(F)c(-c3cnc(N4CCN(C(=O)COCCOCCOCCOCCN5CCN(C(=O)CC[C@H](NC(=O)c6ccc(N(C)Cc7cnc8nc(N)[nH]c(=O)c8n7)cc6)C(=O)O)CC5)CC4)nc3)nc2c(N[C@H](C)c2cc(C#N)ccc2F)c1Cl` [Compound I-78, (S)-2-(4-(((2-amino-4-oxo-3,4-dihydropteridin-6-yl)methyl)(methyl)amino)benzamido)-5-(4-(14-(4-(5-(7-chloro-8-(((R)-1-(5-cyano-2-fluorophenyl)ethyl)amino)-3-fluoro-6-methyl-1,5-naphthyridin-2-yl)pyrimidin-2-yl)piperazin-1-yl)-14-oxo-3,6,9,12-tetraoxatetradecyl)piperazin-1-yl)-5-oxopentanoic acid], the pIC50 is 7.89 in assay [2] and 8.04 in assay [3].

In the case of `Cc1nc2cc(F)c(-c3cnc(N4CCN(C(=O)COCCn5cc(COCCOCCOCCOCCNC(=O)CC[C@H](NC(=O)c6ccc(NCc7cnc8nc(N)nc(O)c8n7)cc6)C(=O)O)nn5)CC4)nc3)nc2c(N[C@H](C)c2cc(C#N)ccc2F)c1Cl` [Compound I-45, (S)-18-(4-(((2-amino-4-hydroxypteridin-6-yl)methyl)amino)benzamido)-1-(1-(2-(2-(4-(5-(7-chloro-8-(((R)-1-(5-cyano-2-fluorophenyl)ethyl)amino)-3-fluoro-6-methyl-1,5-naphthyridin-2-yl)pyrimidin-2-yl)piperazin-1-yl)-2-oxoethoxy)ethyl)-1H-1,2,3-triazol-4-yl)-15-oxo-2,5,8,11-tetraoxa-14-azanonadecan-19-oic acid], the pIC50 in assay [2] was 7.60; in assay [3], 8.38. Besides, the “TC 150 nM- tagless TNF Normalized” value in assay [4] is 16.3%. Further, the “TC 300 nM- tagless TNF Normalized” value in assay [4] is 17.6%.

As for `C[C@@H]1CN(c2ncc(-c3ccc4c(c3)N(Cc3ccccc3OC(F)F)C(C)(C)C4=O)cn2)CCN1C(=O)COCCOCCOCCOCCOCCOCCn1cc(CC[C@H](NC(=O)c2ccc(NCc3cnc4nc(N)nc(O)c4n3)cc2)C(=O)O)nn1` [Compound I-88, (S)-2-(4-(((2-amino-4-hydroxypteridin-6-yl)methyl)amino)benzamido)-4-(1-(20-((R)-4-(5-(1-(2-(difluoromethoxy)benzyl)-2,2-dimethyl-3-oxoindolin-6-yl)pyrimidin-2-yl)-2-methylpiperazin-1-yl)-20-oxo-3,6,9,12,15,18-hexaoxaicosyl)-1H-1,2,3-triazol-4-yl)butanoic acid], the results for the pIC50 in assay [2] and in assay [3] were 7.22 and 8.16, respectively.

Take `Cc1nc2cc(F)c(-c3cnc(N4CCN(C(=O)COCCn5cc(COCCOCCOCCN6CCN(C(=O)[C@H](CCC(=O)O)NC(=O)c7ccc(NCc8cnc9nc(N)nc(O)c9n8)cc7)CC6)nn5)CC4)nc3)nc2c(N[C@H](C)c2cc(C#N)ccc2F)c1Cl` [Compound I-97]: the Rmax in assay [5] (biotinylated folate receptor beta on streptavidin chip) was 17.1 RU. The kd in assay [5] (multi-cycle kinetics, 25° C., 1:1 model) is 0.000798 s⁻¹. Further, in assay [5] (multi-cycle kinetics, 25° C., 1:1 model, read-out: FOLR2Biotin - SPR Kd), the negative logarithm of the Kd (pKd) – broadly, the negative decadic logarithm of the Kd, by convention in mol/L – is 10.04. Besides, in assay [5] (pH 7.5, multi-cycle kinetics, 25° C., 1:1 model, read-out: ka), the kon came out at 8.74e+06 M⁻¹ s⁻¹. Further, in assay [4], the “TC 150 nM- tagless TNF Normalized” value was 18.4% and the “TC 300 nM- tagless TNF Normalized” value was found to be 21.1%. Moreover, the pIC50 in assay [3] was 7.77.

For `Cc1nc2cc(F)c(-c3cnc(N4CC5(CN(C(=O)COCCOCCOCCOCCOCCOCCn6cc(CC[C@H](NC(=O)c7ccc(NCc8cnc9nc(N)nc(O)c9n8)cc7)C(=O)O)nn6)C5)C4)nc3)nc2c(N[C@H](C)c2cc(C#N)ccc2F)c1Cl` [Compound I-81, (S)-2-(4-(((2-amino-4-hydroxypteridin-6-yl)methyl)amino)benzamido)-4-(1-(20-(6-(5-(7-chloro-8-(((R)-1-(5-cyano-2-fluorophenyl)ethyl)amino)-3-fluoro-6-methyl-1,5-naphthyridin-2-yl)pyrimidin-2-yl)-2,6-diazaspiro[3.3]heptan-2-yl)-20-oxo-3,6,9,12,15,18-hexaoxaicosyl)-1H-1,2,3-triazol-4-yl)butanoic acid], the pIC50 in assay [2] was 7.41. Moreover, in assay [4], the “TC 60 nM taggless TNF normalized” value is reported as 4% and the “TC 300 nM- tagless TNF Normalized” value was 12.1%. Moreover, in assay [3], the pIC50 is 8.15.

For `Cc1nc2cc(F)c(-c3cnc(N4CCN(C(=O)COCCOCCOCCOCCOCCOCCn5cc(CC[C@H](NC(=O)c6ccc(SCc7ccc8nc(N)nc(O)c8c7)cc6)C(=O)O)nn5)CC4)nc3)nc2c(N[C@H](C)c2cc(C#N)ccc2F)c1Cl` [Compound I-79, (S)-2-(4-(((2-amino-4-hydroxyquinazolin-6-yl)methyl)thio)benzamido)-4-(1-(20-(4-(5-(7-chloro-8-(((R)-1-(5-cyano-2-fluorophenyl)ethyl)amino)-3-fluoro-6-methyl-1,5-naphthyridin-2-yl)pyrimidin-2-yl)piperazin-1-yl)-20-oxo-3,6,9,12,15,18-hexaoxaicosyl)-1H-1,2,3-triazol-4-yl)butanoic acid], the figures for the pIC50 in assay [2] and in assay [3] were 7.77 and 8.49, respectively.

On to `CN(Cc1cnc2nc(N)[nH]c(=O)c2n1)c1ccc(C(=O)N[C@@H](CCc2cn(CCOCCOCCOCCOCCOCCOCC(=O)N3CCN(c4ncc(-c5ccc6nc(COc7cccc(N8CCCC8=O)c7)n(Cc7ccccc7OC(F)F)c6c5)cn4)CC3)nn2)C(=O)O)cc1` [Compound I-83, (S)-2-(4-(((2-amino-4-oxo-3,4-dihydropteridin-6-yl)methyl)(methyl)amino)benzamido)-4-(1-(20-(4-(5-(1-(2-(difluoromethoxy)benzyl)-2-((3-(2-oxopyrrolidin-1-yl)phenoxy)methyl)-1H-benzo[d]imidazol-6-yl)pyrimidin-2-yl)piperazin-1-yl)-20-oxo-3,6,9,12,15,18-hexaoxaicosyl)-1H-1,2,3-triazol-4-yl)butanoic acid], for which, in assay [2], the pIC50 is 7.55. In assay [4], the “TC 60 nM taggless TNF normalized” value is 14.3% and the “TC 300 nM- tagless TNF Normalized” value is 17.5%. In addition, the pIC50 in assay [3] is 8.28.
